# Measurements published in patent US8486931B2, “Substituted oxindole compounds” (Abbott GmbH & Co. KG, priority 2007, dated 2013).
# Molecular target: T1, human vasopressin V1b receptor (Homo sapiens, UniProt P47901)
# T1 construct: expressed in transfected cells; host or cells: CHO-K1 (cell line hV1b-3H2_CHO), membrane preparation
# T1 sequence (P47901 1-424): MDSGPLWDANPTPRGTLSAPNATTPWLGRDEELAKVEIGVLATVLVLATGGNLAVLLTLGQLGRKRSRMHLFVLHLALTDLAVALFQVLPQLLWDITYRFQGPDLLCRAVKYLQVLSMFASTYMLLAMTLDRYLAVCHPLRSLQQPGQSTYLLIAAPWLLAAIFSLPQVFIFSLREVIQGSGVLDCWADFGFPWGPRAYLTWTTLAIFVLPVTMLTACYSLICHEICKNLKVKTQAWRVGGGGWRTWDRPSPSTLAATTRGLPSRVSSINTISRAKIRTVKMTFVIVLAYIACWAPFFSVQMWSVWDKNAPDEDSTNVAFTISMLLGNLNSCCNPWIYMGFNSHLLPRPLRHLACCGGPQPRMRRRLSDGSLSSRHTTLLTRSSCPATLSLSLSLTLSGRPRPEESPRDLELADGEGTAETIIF
# Assay: Vasopressin V1b receptor binding assay
# Conditions: membranes from CHO-K1 cells with stably expressed human V1b receptors, 1.5 nM 3H-AVP displacement; with more than one stereogenic center: the diastereomer with stronger affinity
# Method: Such compounds can be investigated in suitable assays which establish the affinity to a receptor, with the affinity constant Ki represening a measure of the potency of the compounds and a smaller value representing a larger potency. The compounds of the invention were tested in the following receptor binding assay for their affinity for the V1 b receptor.
# Vasopressin V1 b Receptor Binding Assay:
# The test substances were dissolved in a concentration of 10^−2 M in DMSO (dimethyl sulfoxide) and further diluted to 5×10^−4 M to 5×10^−9 M in DMSO. This series of DMSO predilutions was diluted 1:10 with assay buffer. The substance concentration was again diluted 1:5 in the assay mixture (2% DMSO in the mixture).
# The membrane pellet was again homogenized and centrifuged as described and then taken up in 50 mM Tris-HCl, pH 7.4, homogenized and stored in aliquots frozen in liquid nitrogen at −190° C.
# The incubation buffer was: 50 mM Tris, 10 mM MgCl2, 0.1% BSA, pH 7.4.
# The nonspecific binding was determined with 1 μM AVP (Bachem #H1780). All determinations were carried out as triplicate determinations. After incubation (60 minutes at room temperature), the free radioligand was removed by vacuum filtration (Skatron cell harvester 7000) through Whatman GF/B glass fiber filter mats, and the filters were transferred into scintillation vials. The liquid scintillation measurement took place in a Tricarb model 2000 or 2200CA instrument (Packard). Conversion of the measured cpm into dpm was carried out with the aid of a standard quench series.
# The binding parameters were calculated by nonlinear regression in SAS.
# The above assay was used to measure the affinities of the compounds of the invention for the human vasopressin V1 b receptor and to determine with affinity constants (Ki).
row,SMILES,Ki
1,"COc1ccc(C2(N3CCN(c4ccncc4)CC3)C(=O)N(S(=O)(=O)c3cccc4cccnc34)c3ccc(Cl)cc32)c(OC)c1 (racemic) [Example 1, (±)-5-Chloro-3-(2,4-dimethoxyphenyl)-3-(4-pyridin-4-ylpiperazin-1-yl)-1-(quinoline-8-sulfonyl)-1,3-dihydroindol-2-one]",< 10 nM
2,"CCOc1ncccc1C1(N2CCN(c3ccncc3)CC2)C(=O)N(S(=O)(=O)c2cccc3cccnc23)c2ccc(C#N)cc21 (racemic) [Example 5, (±)-5-Cyano-3-(2-ethoxypyridin-3-yl)-3-(4-pyridin-4-ylpiperazin-1-yl)-1-(quinoline-8-sulfonyl)-2,3-dihydro-1H-indol-2-one]",< 10 nM
3,"CCOc1ccccc1C1(N2CCN(c3ccncc3)CC2C)C(=O)N(S(=O)(=O)c2cccc3cccnc23)c2ccc(C#N)cc21 (racemic) [Example 6, (±)-5-Cyano-3-(2-ethoxyphenyl)-3-(2-methyl-4-pyridin-4-ylpiperazin-1-yl)-1-(quinoline-8-sulfonyl)-2,3-dihydro-1H-indol-2-one]",< 10 nM
4,"COc1nc(Cl)ccc1C1(N2CCN(c3ccncc3)CC2)C(=O)N(S(=O)(=O)c2cccc3cccnc23)c2ccc(Cl)cc21 (racemic) [Example 10, (±)-5-Chloro-3-(6-chloro-2-methoxypyridin-3-yl)-3-(4-pyridin-4-ylpiperazin-1-yl)-1-(quinoline-8-sulfonyl)-1,3-dihydroindol-2-one]",< 10 nM
5,"CCOc1ccccc1C1(N2CCN(c3ccncc3)CC2)C(=O)N(S(=O)(=O)c2ccc(Cl)c3cccnc23)c2ccc(C#N)cc21 (racemic) [Example 12, (±)-5-Cyano-1-(5-chloroquinoline-8-sulfonyl)-3-(2-ethoxyphenyl)-3-(4-pyridin-4-yl-piperazin-1-yl)-2,3-dihydro-1H-indol-2-one]",10 to 50 nM
6,"CCOc1ccccc1C1(N2CCN(c3ccncc3C)CC2)C(=O)N(S(=O)(=O)c2cccc3cccnc23)c2ccc(C#N)cc21 (racemic) [Example 15, (±)-5-Cyano-3-(2-ethoxyphenyl)-3-[4-(3-methylpyridin-4-yl)-piperazin-1-yl]-1-(quinoline-8-sulfonyl)-2,3-dihydro-1H-indol-2-one]",10 to 50 nM
7,"CCOc1ccccc1C1(N2CCN(c3ccncc3)CC2)C(=O)N(S(=O)(=O)c2cccc3c(C)ccnc23)c2ccc(C#N)cc21 (racemic) [Example 16, (±)-5-Cyano-3-(2-ethoxyphenyl)-1-(4-methylquinoline-8-sulfonyl)-3-(4-pyridin-4-yl-piperazin-1-yl)-2,3-dihydro-1H-indol-2-one]",< 10 nM
8,"CCOc1ccccc1C1(N2CCN(c3ccncc3)C(C)C2)C(=O)N(S(=O)(=O)c2cccc3cccnc23)c2ccc(C#N)cc21 (racemic) [Example 17, (±)-5-Cyano-3-(2-ethoxyphenyl)-3-(3-methyl-4-pyridin-4-ylpiperazin-1-yl)-1-(quinoline-8-sulfonyl)-2,3-dihydro-1H-indol-2-one]",10 to 50 nM
9,"COc1nc(Cl)ccc1C1(N2CCN(c3ccncc3)CC2)C(=O)N(S(=O)(=O)c2cccc3cccnc23)c2ccc(C#N)cc21 (racemic) [Example 19, (±)-5-Cyano-3-(6-chloro-2-methoxypyridin-3-yl)-3-(4-pyridin-4-ylpiperazin-1-yl)-1-(quinoline-8-sulfonyl)-2,3-dihydro-1H-indol-2-one]",10 to 50 nM
10,"CCOc1nc(Cl)ccc1C1(N2CCN(c3ccncc3)CC2)C(=O)N(S(=O)(=O)c2ccc(C)cn2)c2ccc(C#N)cc21 (racemic) [Example 23, (±)-5-Cyano-3-(6-chloro-2-ethoxypyridin-3-yl)-1-(5-methylpyridine-2-sulfonyl)-3-(4-pyridin-4-ylpiperazin-1-yl)-2,3-dihydro-1H-indol-2-one]",10 to 50 nM

# Further lines, results first:
row,Ki,SMILES
1,10 to 50 nM,"COc1cccc(C2(N3CCN(c4ccncc4)CC3)C(=O)N(S(=O)(=O)c3cccc4cccnc34)c3ccc(Cl)cc32)c1OC (racemic) [Example 2, (±)-5-Chloro-3-(2,3-dimethoxyphenyl)-3-(4-pyridin-4-ylpiperazin-1-yl)-1-(quinoline-8-sulfonyl)-1,3-dihydroindol-2-one]"
2,10 to 50 nM,"COc1ncccc1C1(N2CCN(c3ccncc3)CC2)C(=O)N(S(=O)(=O)c2cccc3cccnc23)c2ccc(C#N)cc21 (racemic) [Example 4, (±)-5-Cyano-3-(2-methoxypyridin-3-yl)-3-(4-pyridin-4-ylpiperazin-1-yl)-1-(quinoline-8-sulfonyl)-2,3-dihydro-1H-indol-2-one]"
3,10 to 50 nM,"O=C1N(S(=O)(=O)c2cccc3cccnc23)c2ccc(Cl)cc2C1(c1ccccn1)N1CCN(c2ccncc2)CC1 (racemic) [Example 8, (±)-5-Chloro-3-pyridin-2-yl-3-(4-pyridin-4-ylpiperazin-1-yl)-1-(quinoline-8-sulfonyl)-1,3-dihydroindol-2-one]"
4,10 to 50 nM,"Cc1cccnc1C1(N2CCN(c3ccncc3)CC2)C(=O)N(S(=O)(=O)c2cccc3cccnc23)c2ccc(Cl)cc21 (racemic) [Example 9, (±)-5-Chloro-3-(3-methylpyridin-2-yl)-3-(4-pyridin-4-ylpiperazin-1-yl)-1-(quinoline-8-sulfonyl)-1,3-dihydroindol-2-one]"
5,10 to 50 nM,"CCOc1ccccc1C1(N2CCN(c3ccncc3)CC2)C(=O)N(S(=O)(=O)c2ccc(C)cn2)c2ccc(C#N)cc21 (racemic) [Example 11, (±)-5-Cyano-3-(2-ethoxyphenyl)-1-(5-methylpyridine-2-sulfonyl)-3-(4-pyridin-4-yl-piperazin-1-yl)-2,3-dihydro-1H-indol-2-one]"
6,< 10 nM,"CCOc1ccc(OC)cc1C1(N2CCN(c3ccncc3)CC2)C(=O)N(S(=O)(=O)c2cccc3cccnc23)c2ccc(C#N)cc21 (racemic) [Example 13, (±)-5-Cyano-3-(2-ethoxy-5-methoxyphenyl)-3-(4-pyridin-4-yl-piperazin-1-yl)-1-(quinoline-8-sulfonyl)-2,3-dihydro-1H-indol-2-one]"
7,10 to 50 nM,"CCOc1ccccc1C1(N2CCN(c3ccncc3)CC2)C(=O)N(S(=O)(=O)c2ccccn2)c2ccc(C#N)cc21 (racemic) [Example 14, (±)-5-Cyano-3-(2-ethoxyphenyl)-1-(pyridine-2-sulfonyl)-3-(4-pyridin-4-yl-piperazin-1-yl)-2,3-dihydro-1H-indol-2-one]"
8,< 10 nM,"CCOc1ccc(OC)cc1C1(N2CCN(c3ccnc(C)c3)CC2)C(=O)N(S(=O)(=O)c2cccc3c(C)ccnc23)c2ccc(C#N)cc21 (racemic) [Example 18, (±)-5-Cyano-3-(2-ethoxy-5-methoxyphenyl)-3-[4-(2-methylpyridin-4-yl)piperazin-1-yl]-1-(4-methylquinoline-8-sulfonyl)-2,3-dihydro-1H-indol-2-one]"
9,10 to 50 nM,"CCOc1ccc(OC)cc1C1(N2C[C@@H]3C[C@H]2CN3c2ccncc2)C(=O)N(S(=O)(=O)c2ccc(C)cn2)c2ccc(C#N)cc21 (mixture of isomers) [Example 20, (±)-5-Cyano-3-(2-ethoxy-5-methoxyphenyl)-1-(5-methylpyridine-2-sulfonyl)-3-((1S, 4S)-5-pyridin-4-yl-2,5-diazabicyclo[2.2.1]hept-2-yl)-2,3-dihydro-1H-indol-2-one]"
10,10 to 50 nM,"COc1ccc(OC(C)C)c(C2(N3CCN(c4ccncc4)CC3)C(=O)N(S(=O)(=O)c3ccc(C)cn3)c3ccc(C#N)cc32)c1 (racemic) [Example 21, (±)-5-Cyano-3-(2-isopropoxy-5-methoxyphenyl)-1-(5-methylpyridine-2-sulfonyl)-3-(4-pyridin-4-ylpiperazin-1-yl)-2,3-dihydro-1H-indol-2-one]"
11,< 10 nM,"CCOc1ccccc1C1(N2CCN(c3ccncc3)CC2)C(=O)N(S(=O)(=O)c2ccc(OC)cn2)c2ccc(C#N)cc21 (racemic) [Example 22, (±)-5-Cyano-3-(2-ethoxyphenyl)-1-(5-methoxypyridine-2-sulfonyl)-3-(4-pyridin-4-yl-piperazin-1-yl)-2,3-dihydro-1H-indol-2-one]"
12,< 10 nM,"CCOc1nc(Cl)ccc1C1(N2CCN(c3ccncc3)CC2)C(=O)N(S(=O)(=O)c2cccc3cccnc23)c2ccc(C#N)cc21 (racemic) [Example 24, (±)-5-Cyano-3-(6-chloro-2-ethoxypyridin-3-yl)-3-(4-pyridin-4-ylpiperazin-1-yl)-1-(quinoline-8-sulfonyl)-2,3-dihydro-1H-indol-2-one]"
